From article PMC6679700 (International Journal of Nanomedicine, 2019)

How the values were obtained:
TRPM8 = conditions: skin; cited from earlier work
[1] = cited from earlier work
[2] = Solubility of FK506 in water, MCE and MCE ME; type: physicochemical; conditions: menthol/camphor eutectic, ratio 3/1 (w/w)

Row | Solubility of FK506 in MCE [2] | Compound | Duration of cool sensation (TRPM8) | Aqueous solubility [1]
1 | – | CC1CCC(C(C)C)C(O)C1 (stereo not drawn) [Menthol, menthol] | up to 70 mins | –
2 | 136 mg/mL | C=CC[C@@H]1/C=C(\C)C[C@H](C)C[C@H](OC)[C@H]2O[C@@](O)(C(=O)C(=O)N3CCCC[C@H]3C(=O)O[C@H](/C(C)=C/[C@@H]3CC[C@@H](O)[C@H](OC)C3)[C@H](C)[C@@H](O)CC1=O)[C@H](C)C[C@@H]2OC [FK506, Tacrolimus] | – | 0.004 to 0.012 mg/mL
